Several values for one entry are separate records, joined by “and”; a condition that tells them apart may be missing. Identical values can stand only once.
Columns and labels:
Format in all cases: cell-based
HIV-1 NL 4-3 [1] = experiment: HIV-1 infection of C8166 cells (syncytia formation, p24 ELISA) with HIV-1 NL 4-3
Procedure, shortened: (§1)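 C8166 T-cells were preincubated with peptide for 1 h at 37 °C, then exposed for 1 h to HIV-1 at 1000 TCID50/ml, washed, and cultured with peptide kept present throughout, with medium replaced at day 4. Infection was scored by syncytia formation and by supernatant p24 ELISA, with at least two runs in duplicate.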

HIV-1 NDK = experiment: HIV-1 infection of C8166 cells (syncytia formation, p24 ELISA) with HIV-1 NDK; design: key to syncitia formed, Day 4 / syncitia formed, Day 5 / syncitia formed, Day 6 / syncitia formed, Day 7: ++, +, (+), (+)− and − represent decreasing numbers of syncitia formed; ++, +, (+), (+)− and − represent decreasing numbers of syncitia formed; ++, +, (+), (+)− and − represent decreasing numbers of syncitia formed; ++, +, (+), (+)− and − represent decreasing numbers of syncitia formed; ++, +, (+), (+)− and − represent decreasing numbers of syncitia formed; conditions: for P 24: P 24 after Day 7
Procedure, shortened: as §1

HIV-1 NL 4-3 [2] = experiment: HIV-1 infection of C8166 cells (syncytia formation, p24 ELISA) with HIV-1 NL 4-3; design: key: ++, +, (+), (+)− and − represent decreasing numbers of syncitia formed; ++, +, (+), (+)− and − represent decreasing numbers of syncitia formed; ++, +, (+), (+)− and − represent decreasing numbers of syncitia formed; ++, +, (+), (+)− and − represent decreasing numbers of syncitia formed; ++, +, (+), (+)− and − represent decreasing numbers of syncitia formed
Procedure, shortened: as §1

[3] = C8166 cells, HIV-1 subtype B NL 4-3, Table 9, two lines = tested twice, 8 days apart

With C[C@H](NC(=O)[C@H](CCCNC(=N)N)NC(=O)CNC(=O)[C@@H]1CCCN1C(=O)CN)C(=O)N[C@@H](Cc1ccccc1)C(=O)NCCCC[C@H](NC(=O)[C@H](Cc1ccccc1)NC(=O)[C@H](C)NC(=O)[C@H](CCCNC(=N)N)NC(=O)CNC(=O)[C@@H]1CCCN1C(=O)CN)C(=O)NCCCC[C@H](NC(=O)[C@H](CCCCNC(=O)[C@H](Cc1ccccc1)NC(=O)[C@H](C)NC(=O)[C@H](CCCNC(=N)N)NC(=O)CNC(=O)[C@@H]1CCCN1C(=O)CN)NC(=O)[C@H](Cc1ccccc1)NC(=O)[C@H](C)NC(=O)[C@H](CCCNC(=N)N)NC(=O)CNC(=O)[C@@H]1CCCN1C(=O)CN)C(=O)NCCCC[C@H](NC(=O)[C@H](CCCCNC(=O)[C@H](CCCCNC(=O)[C@H](Cc1ccccc1)NC(=O)[C@H](C)NC(=O)[C@H](CCCNC(=N)N)NC(=O)CNC(=O)[C@@H]1CCCN1C(=O)CN)NC(=O)[C@H](Cc1ccccc1)NC(=O)[C@H](C)NC(=O)[C@H](CCCNC(=N)N)NC(=O)CNC(=O)[C@@H]1CCCN1C(=O)CN)NC(=O)[C@H](CCCCNC(=O)[C@H](Cc1ccccc1)NC(=O)[C@H](C)NC(=O)[C@H](CCCNC(=N)N)NC(=O)CNC(=O)[C@@H]1CCCN1C(=O)CN)NC(=O)[C@H](Cc1ccccc1)NC(=O)[C@H](C)NC(=O)[C@H](CCCNC(=N)N)NC(=O)CNC(=O)[C@@H]1CCCN1C(=O)CN)C(=O)NCCC(=O)O [SPC3, (GPGRAF)8-K4-K2-K-βA-OH, reference compound] the “Day 7 syncitia formed” value (HIV-1 NL 4-3 [1]; 0.005 μM, Table 6) was “++/T”, the “Day 7 syncitia formed” value (HIV-1 NL 4-3 [1]; 0.01 μM, Table 6) was “++/T” and the “Day 7 syncitia formed” value (HIV-1 NL 4-3 [1]; 0.05 μM, Table 6) was “++/T”. The IC50 (HIV-1 NL 4-3 [1]; C8166 cells, HIV-1 subtype B NL 4-3, Table 3) was 500 nM, the IC50 (HIV-1 NL 4-3 [1]; [3]) was 500 nM and the IC100 (HIV-1 NL 4-3 [1]; [3]) was 5 µM. For the same compound, the “P 24” value (HIV-1 NL 4-3 [1]; Day 4, 5 μM, Table 1) was “NEG”, the “P 24” value (HIV-1 NL 4-3 [1]; Day 4, 5 μM, Table 2) was “NEG” and the “P 24” value (HIV-1 NL 4-3 [1]; Day 7, 0.005 μM, Table 6) was 23810 pg/mL. The “P 24” value (HIV-1 NL 4-3 [1]; Day 7, 0.01 μM, Table 6) was 23810 pg/mL, the “P 24” value (HIV-1 NL 4-3 [1]; Day 7, 0.05 μM, Table 6) was 23810 pg/mL and the “P 24” value (HIV-1 NL 4-3 [1]; Day 7, 0.1 μM, Table 6) was 17810 pg/mL and 19850 pg/mL. For the same compound, the “P 24” value (HIV-1 NL 4-3 [1]; Day 7, 0.5 μM, Table 6) was 5173 pg/mL and 4840 pg/mL, the “P 24” value (HIV-1 NL 4-3 [1]; Day 7, 2 μM, Table 1) was 7589 pg/mL and 14787 pg/mL and the “P 24” value (HIV-1 NL 4-3 [1]; Day 7, 5 μM, Table 1) was “NEG”. The “P 24” value (HIV-1 NL 4-3 [1]; Day 7, 5 μM, Table 2) was 288 pg/mL and 342 pg/mL, the “P 24” value (HIV-1 NL 4-3 [1]; Day 7, 5 μM, Table 6) was 3 pg/mL and the “syncitia formed, Day 4” value (HIV-1 NDK; 0.005 μM) was “−”. The “syncitia formed, Day 5” value (HIV-1 NDK; 0.005 μM) was “+”, the “syncitia formed, Day 6” value (HIV-1 NDK; 0.005 μM) was “++” and the “syncitia formed, Day 7” value (HIV-1 NDK; 0.005 μM) was “++/T”. For the same compound, the “P 24” value (HIV-1 NDK; 0.005 μM) was 23810 pg/mL, the “syncitia formed, Day 4” value (HIV-1 NDK; 0.01 μM) was “−” and the “syncitia formed, Day 5” value (HIV-1 NDK; 0.01 μM) was “+”. For the same compound, the “syncitia formed, Day 6” value (HIV-1 NDK; 0.01 μM) was “++”, the “syncitia formed, Day 7” value (HIV-1 NDK; 0.01 μM) was “++/T” and the “P 24” value (HIV-1 NDK; 0.01 μM) was 23810 pg/mL. The “syncitia formed, Day 4” value (HIV-1 NDK; 0.05 μM) was “−”, the “syncitia formed, Day 5” value (HIV-1 NDK; 0.05 μM) was “+” and the “syncitia formed, Day 6” value (HIV-1 NDK; 0.05 μM) was “++”. The “syncitia formed, Day 7” value (HIV-1 NDK; 0.05 μM) was “++/T”, the “P 24” value (HIV-1 NDK; 0.05 μM) was 23810 pg/mL and the “syncitia formed, Day 4” value (HIV-1 NDK; 0.1 μM) was “−”. The “syncitia formed, Day 5” value (HIV-1 NDK; 0.1 μM) was “(+)”, the “syncitia formed, Day 6” value (HIV-1 NDK; 0.1 μM) was “+ and ++” and the “syncitia formed, Day 7” value (HIV-1 NDK; 0.1 μM) was “++”. For the same compound, the “P 24” value (HIV-1 NDK; 0.1 μM) was 18810 pg/mL and 20850 pg/mL, the “syncitia formed, Day 4” value (HIV-1 NDK; 0.5 μM) was “−” and the “syncitia formed, Day 5” value (HIV-1 NDK; 0.5 μM) was “−”. The “syncitia formed, Day 6” value (HIV-1 NDK; 0.5 μM) was “+”, the “syncitia formed, Day 7” value (HIV-1 NDK; 0.5 μM) was “++” and the “P 24” value (HIV-1 NDK; 0.5 μM) was 15173 pg/mL and 12840 pg/mL. The “syncitia formed, Day 4” value (HIV-1 NDK; 1 μM) was “−”, the “syncitia formed, Day 5” value (HIV-1 NDK; 1 μM) was “−” and the “syncitia formed, Day 6” value (HIV-1 NDK; 1 μM) was “−”. The “syncitia formed, Day 7” value (HIV-1 NDK; 1 μM) was “(+)”, the “syncitia formed, Day 4” value (HIV-1 NDK; 5 μM) was “−” and the “syncitia formed, Day 5” value (HIV-1 NDK; 5 μM) was “−”. For the same compound, the “syncitia formed, Day 6” value (HIV-1 NDK; 5 μM) was “−”, the “syncitia formed, Day 7” value (HIV-1 NDK; 5 μM) was “−” and the IC50 (HIV-1 NDK; HIV 1 NDK, Table 10) was 600 nM. For the same compound, the IC100 (HIV-1 NDK; HIV 1 NDK, Table 10) was 5 µM, the “Day 4 syncitia formed” value (HIV-1 NL 4-3 [2]; 0.005 μM, Table 6) was “−” and the “Day 5 syncitia formed” value (HIV-1 NL 4-3 [2]; 0.005 μM, Table 6) was “+”. For the same compound, the “Day 6 syncitia formed” value (HIV-1 NL 4-3 [2]; 0.005 μM, Table 6) was “++”, the “Day 4 syncitia formed” value (HIV-1 NL 4-3 [2]; 0.01 μM, Table 6) was “−” and the “Day 5 syncitia formed” value (HIV-1 NL 4-3 [2]; 0.01 μM, Table 6) was “+”. For the same compound, the “Day 6 syncitia formed” value (HIV-1 NL 4-3 [2]; 0.01 μM, Table 6) was “++”, the “Day 4 syncitia formed” value (HIV-1 NL 4-3 [2]; 0.05 μM, Table 6) was “−” and the “Day 5 syncitia formed” value (HIV-1 NL 4-3 [2]; 0.05 μM, Table 6) was “+”. For the same compound, the “Day 6 syncitia formed” value (HIV-1 NL 4-3 [2]; 0.05 μM, Table 6) was “++”, the “Day 4 syncitia formed” value (HIV-1 NL 4-3 [2]; 0.1 μM, Table 6) was “−” and the “Day 5 syncitia formed” value (HIV-1 NL 4-3 [2]; 0.1 μM, Table 6) was “(+)”. The “Day 6 syncitia formed” value (HIV-1 NL 4-3 [2]; 0.1 μM, Table 6) was “+ and ++”, the “Day 7 syncitia formed” value (HIV-1 NL 4-3 [2]; 0.1 μM, Table 6) was “++” and the “Day 4 syncitia formed” value (HIV-1 NL 4-3 [2]; 0.5 μM, Table 6) was “−”. For the same compound, the “Day 5 syncitia formed” value (HIV-1 NL 4-3 [2]; 0.5 μM, Table 6) was “−”, the “Day 6 syncitia formed” value (HIV-1 NL 4-3 [2]; 0.5 μM, Table 6) was “(+)” and the “Day 7 syncitia formed” value (HIV-1 NL 4-3 [2]; 0.5 μM, Table 6) was “+”. The “Day 4 syncitia formed” value (HIV-1 NL 4-3 [2]; 1 μM, Table 6) was “−”, the “Day 5 syncitia formed” value (HIV-1 NL 4-3 [2]; 1 μM, Table 6) was “−” and the “Day 6 syncitia formed” value (HIV-1 NL 4-3 [2]; 1 μM, Table 6) was “−”. The “Day 7 syncitia formed” value (HIV-1 NL 4-3 [2]; 1 μM, Table 6) was “(+)”, the “Day 4 syncitia formed” value (HIV-1 NL 4-3 [2]; 2 μM, Table 1) was “−” and the “Day 5 syncitia formed” value (HIV-1 NL 4-3 [2]; 2 μM, Table 1) was “(+) and (+)−”. The “Day 6 syncitia formed” value (HIV-1 NL 4-3 [2]; 2 μM, Table 1) was “+”, the “Day 7 syncitia formed” value (HIV-1 NL 4-3 [2]; 2 μM, Table 1) was “++” and the “Day 4 syncitia formed” value (HIV-1 NL 4-3 [2]; 5 μM, Table 1) was “−”. For the same compound, the “Day 5 syncitia formed” value (HIV-1 NL 4-3 [2]; 5 μM, Table 1) was “−”, the “Day 6 syncitia formed” value (HIV-1 NL 4-3 [2]; 5 μM, Table 1) was “−” and the “Day 7 syncitia formed” value (HIV-1 NL 4-3 [2]; 5 μM, Table 1) was “−”. For the same compound, the “Day 4 syncitia formed” value (HIV-1 NL 4-3 [2]; 5 μM, Table 6) was “−”, the “Day 5 syncitia formed” value (HIV-1 NL 4-3 [2]; 5 μM, Table 6) was “−” and the “Day 6 syncitia formed” value (HIV-1 NL 4-3 [2]; 5 μM, Table 6) was “−”. The “Day 7 syncitia formed” value (HIV-1 NL 4-3 [2]; 5 μM, Table 6) was “−”.

Source: US20060229433A1, “Modified antiviral peptides with increased activity and cell membrane affinity” (priority 2003, published 2006)
